SMILES	melting point [°C]
CN(C)S(=O)(=O)c1cc(C(=O)O)ccc1F	199 to 201
COc1cc(F)c([N+](=O)[O-])cc1F	78 to 80
N#CCc1ccc(-n2cccn2)cc1	127 to 129
CN(C(=O)C1CC1)c1ccccc1C(=O)O	166 to 168
CCC(=O)Nc1ccc(S(=O)(=O)Cl)cc1	109 to 111
Cc1cc(Oc2cnccn2)ccc1N	125 to 127
O=C(O)c1cnc(OCC(F)(F)F)c(Cl)c1	162 to 164
CC(C)(C)n1cc(C(=O)O)cn1	155 to 157
c1ccc(CC2CCN(Cc3ccccc3)CC2)cc1	65 to 67
CSc1ccc(C#N)cc1N	42 to 44
FC(F)(F)CNc1ccncc1	157 to 159
CCCOc1nc(C(=O)O)cc2ccccc12	159 to 161
O=C(O)c1cnc2c(Br)cccc2c1O	276 to 278
CC(O)c1cc[nH]n1 (configuration not stated)	58 to 60
CCC(=O)C(N)=O	94 to 96
CC(N)c1ccc(NC(=O)Nc2ccccc2)cc1 (configuration not stated)	165 to 167
Cc1cc(S(N)(=O)=O)c(F)cc1F	97 to 99
O=C(CC(=O)Nc1ccc(F)cc1)Nc1ccc(F)cc1	217 to 219
NC(=O)c1ccc(-n2cccc2)cc1	237 to 239
Cc1c(C(=O)O)sc2nc(Cc3ccccc3)[nH]c(=O)c12	342 to 344
CCCc1c(C(=O)O)cnn1-c1cccc(F)c1	97 to 99
Cc1cc(CO)c(C)n1-c1ccccc1	77 to 79
c1ccc(Cn2ccnc2)nc1	63 to 65
Nc1nc2c(s1)COc1ccccc1-2	190 to 192

SMILES	melting point [°C]
COC(=O)c1cc(OC)ccn1	43 to 45
COC1(OC)CC(CO)(CO)C1	48 to 50
O=C1CCCc2sc(Br)cc21	76 to 78
Cc1cc(C(=O)NN)c(C)o1	132 to 134
O=C(O)c1csc2c1CCCC2	159 to 161
O=[N+]([O-])c1cc2nc(Cl)ccc2cc1F	130 to 132
O=C(CCCl)Nc1ccccn1	104 to 106
COC(=O)c1cc(S(=O)(=O)Cl)ccc1C	44 to 46
Nc1ccc(S(=O)(=O)N2CCC(Cc3ccccc3)CC2)cc1	153 to 155
CC(C)(C)Nc1nnc(S)s1	164 to 166
ClCc1nnc(-c2cc3c(s2)CCCC3)o1	107 to 109
Sc1nnc(Nc2ccccc2Cl)s1	174 to 176
COc1ccc(CC(O)C(=O)O)cc1 (configuration not stated)	84 to 86
NC(=O)CN1CC(O)CC1=O (configuration not stated)	133 to 135
N#CC(=Cc1ccco1)C(=O)O	227 to 229
CCOC(=O)c1nc(C)oc1N	123 to 125
O=C(O)c1cn(Cc2cccc(F)c2)nn1	189 to 191
CN1CCC2(CC1)NC(=O)NC2=O	283 to 285
O=c1c(Oc2ccccc2)coc2cc(O)ccc12	197 to 199
CCOc1cc2nccc(Cl)c2cc1OCC	72 to 74
Cc1cc(C)c(-c2csc(N)n2)cc1C	252 to 254
O=C(Nc1cccc(O)c1)c1ccsc1	165 to 167
Cn1c(Cl)nc2ccccc21	111 to 113
CCCCN1C(=O)CCC(C(=O)O)C1c1ccccc1OC (configuration not stated)	288 to 290

SMILES	melting point [°C]
COc1ccc(Cl)cc1NC(=O)CC(=O)Nc1cc(Cl)ccc1OC	98 to 101
COc1ccc2c(c1)c(C(=O)O)c(C)n2C1CC1	199 to 201
Clc1ccc(CN2CCNCC2)cn1	89 to 91
CN(C)C(=O)c1ccccc1O	161 to 163
CC(Cl)C(=O)Nc1ccc(Cl)cn1 (configuration not stated)	88 to 90
CC(NS(=O)(=O)c1ccccc1C(F)(F)F)C(=O)O (configuration not stated)	105 to 107
NCc1ccc(C(N)=O)nc1	146 to 148
COc1cccc(Cc2nnc(N)s2)c1	104 to 106
COCCOc1ccc(-n2nc(C)c(C(=O)O)n2)cc1	157 to 159
c1ccc(CNc2ccc(N3CCOCC3)cc2)nc1	132 to 134
O=C(O)CC1SC(=Nc2ccccc2)NC1=O (configuration not stated)	202 to 204
O=C1C(Br)CCN1c1ccc(C(F)(F)F)cc1 (configuration not stated)	63 to 65
CCn1nnnc1S	18 to 20
CCNS(=O)(=O)c1ccc(Br)c(C(=O)O)c1	198 to 200
COC(=O)c1cc(C=O)c[nH]1	124 to 126
N#CCc1ccc(OCc2ccccn2)cc1	76 to 78
O=C(O)CNC(=O)c1cccc(Br)c1	148 to 150
O=C(O)CNC(=O)CC1CCCC1	98 to 100
Fc1cc(F)c2cccnc2c1	76 to 78
CCc1nnc(S)n1N	143 to 145
N#CCSc1cccc(C(=O)O)c1	144 to 146
CCCCc1c(C)nc2nc(S)nn2c1C	248 to 250
Cc1ccc(N2C(=O)NC(CCC(=O)O)C2=O)cc1Cl (configuration not stated)	193 to 195
Cc1c(C(=O)O)oc2c1C(=O)CC(C)(C)C2	199 to 201
